Source: article PMC10533516, “The Dictyostelium discoideum FimA protein, unlike yeast and plant fimbrins, is regulated by calcium similar to mammalian plastins” (Scientific Reports, 2023)

T1: FimA-EF (Dictyostelium discoideum, UniProt P54680)
T1 construct: EF-hand headpiece domain with switch helix H5, residues 1-93; pET15b, N-terminal 6His-tag with TEV site, tag cleaved; E. coli BL21(DE3)
T1 sequence (P54680 1-93): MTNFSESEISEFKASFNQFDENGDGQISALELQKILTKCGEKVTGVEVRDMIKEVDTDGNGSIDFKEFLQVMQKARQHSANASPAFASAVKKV

T2: FimA-EF-N81ter (Dictyostelium discoideum, UniProt P54680)
T2 construct: EF-hand headpiece domain truncated before switch helix H5 (N81ter), residues 1-80; N-terminal 6His-tag with TEV site, tag cleaved; E. coli BL21(DE3)
T2 sequence (P54680 1-80): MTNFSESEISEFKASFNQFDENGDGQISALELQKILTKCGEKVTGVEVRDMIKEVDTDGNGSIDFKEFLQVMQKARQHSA

T3: FimA-EF-N81ter (EF-hand domain of the Dictyostelium discoideum FimA headpiece, residues 1-80, lacking the H5 … (Dictyostelium discoideum, UniProt P54680 1-80))
T3 construct: FimA (fimbrin) of Dictyostelium discoideum, UniProtKB P54680, headpiece truncated by a stop codon at N81: residues 1-80, omits the entire H5 region; Made by site-directed mutagenesis of the synthetic FimA 1-93 gene in pET15b (NdeI/XhoI) with an N-terminal 6His-tag and a TEV site; The methods say the last 12 amino acids are deleted, but 1-80 of 1-93 removes 13; also called …
T3 sequence (looked up): T2 sequence (P54680 1-80)

B1: H5 peptide (14-residue synthetic peptide encompassing the H5 / putative regulatory switch-helix region of FimA) (peptide)
peptide: Ac-SANASPAFASAVKK-NH2
notes: Stretch of FimA of Dictyostelium discoideum (UniProtKB P54680) encompassing the putative regulatory domain (H5); Limits worked out from the printed positions N81, P84 and F86; also called synthetic H5 peptide; source: synthetic peptide, obtained from Genscript (purity over 95%)

Key:
FimA-EF = target: T1, FimA-EF; experiment: 1H, […]-HSQC NMR titration (chemical shift changes); format: binding; details: 25 °C, pH 7.0; Ca2+-bound; site of switch helix H5
FimA-EF-N81ter = target: T2, FimA-EF-N81ter; experiment: 1H, […]-HSQC NMR titration; format: binding
[1] = target: L-plastin H5 peptide H5 (Homo sapiens) (UniProt P13796); details: cited from earlier work
[2] = target: T3, FimA-EF-N81ter (EF-hand domain of the …); experiment: NMR titration; 15N-labelled FimA-EF-N81ter titrated with the H5 peptide, 1H,15N-HSQC, chemical shift changes fitted, fast exchange; 25 °C, 100 mM KCl, 20 mM Bis-Tris pH 7.0, 10 mM DTT; details: both partners purified

Molecule | 1H,15N-HSQC NMR titration (chemical shift changes) (FimA-EF) | Kd (FimA-EF-N81ter) | Kd [1] | Kd [2]
NCCCCCCNS(=O)(=O)c1cccc2c(Cl)cccc12 [W7] | Both TFP and W7 caused significant chemical shift changes in the HSQC spectrum of FimA-EF | 3.8 µM |  | 
L-plastin EF-hand domain (from UniProt P13796) |  |  | 3.5 µM | 
CN1CCN(CCCN2c3ccccc3Sc3ccc(C(F)(F)F)cc32)CC1 [TFP] | Both TFP and W7 caused significant chemical shift changes in the HSQC spectrum of FimA-EF | 1.5 µM |  | 
B1 |  |  |  | 300 µM
